“And” between values parts separate entries of the source, which are not always exact repeats. Identical values can stand only once. Square brackets hold non-standard residues; d marks the D form. Ends that are not written are not given here. Oic = O=C(O)[C@@H]1C[C@@H]2CCCC[C@@H]2N1; Tic = O=C(O)[C@@H]1Cc2ccccc2CN1
Columns and labels:
[1] = test system: NK‐92 cells; assay: Flow cytometry analysis of protein labeling in NK-92 and MDA-MB-231 cells; type: cell-based, human; conditions: 2 h, 37 °C
Protocol: Figure 4 Characterization of qABPs in native proteomes. A) Labeling of GzmA by 5 and 6 in lysates of various cell lines (1 h, 37 °C). B) Stability of 5 and 6 in buffer and cell media (11 h, 37 °C). The hydrolysis of probes was measured by monitoring the production of Cy5 fluorescence signal over time. […] C) Labeling of GzmA by probes 3 -6 in NK-92 cells (2 h, 37 °C). D) Flow cytometry analysis of protein labeling in NK-92 cells by 3 -5. […] E) Flow cytometry analysis of concentration-dependent GzmA labeling in NK-92 cells and S/N of 5 (5 μM, 2 h, 37 °C). […] F) Flow cytometry analysis of protein labeling by 5 in MDA-MB-231 cells co-cultured with NK-92 cells (see Supporting Information for conditions).

[2] = target: T1, GzmA in lysate of NK‐92 cells (Homo sapiens, UniProt P12544); assay: Labeling of GzmA in NK-92 cell lysate; type: biochemical; conditions: 1 mg/mL lysate, various probe concentrations, 1 h, 37 °C, in-gel fluorescence
T1 construct: host or cells: NK-92
T1 sequence (P12544 29-262): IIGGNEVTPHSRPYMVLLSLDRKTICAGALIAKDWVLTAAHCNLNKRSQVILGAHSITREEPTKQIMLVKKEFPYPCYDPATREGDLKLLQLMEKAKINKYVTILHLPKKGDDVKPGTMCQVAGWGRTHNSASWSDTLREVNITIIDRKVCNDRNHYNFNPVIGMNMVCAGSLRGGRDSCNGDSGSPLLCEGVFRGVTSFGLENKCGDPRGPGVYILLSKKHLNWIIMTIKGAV
Protocol: Figure 4 Characterization of qABPs in native proteomes. A) Labeling of GzmA by 5 and 6 in lysates of various cell lines (1 h, 37 °C). B) Stability of 5 and 6 in buffer and cell media (11 h, 37 °C). The hydrolysis of probes was measured by monitoring the production of Cy5 fluorescence signal over time. […] C) Labeling of GzmA by probes 3 –6 in NK‐92 cells (2 h, 37 °C). D) Flow cytometry analysis of protein labeling in NK‐92 cells by 3 –5. […] E) Flow cytometry analysis of concentration‐dependent GzmA labeling in NK‐92 cells and S/N of 5 (5 μM, 2 h, 37 °C). […]
Briefly, hGzmA (50 nM) was incubated with either inhibitor 1 or 2 (200 nM), and GzmA fluorogenic substrate […] (100 µM) in 50 mM Tris, 150 mM NaCl, 0.01% Triton X-100 (pH 8) for 15 hr at 37 °C. Recorded fluorescence at Ex/Em: 380/460 nm for residual GzmA […]
Cat. No. CRL-2570) and 4T1 (ATCC Cat. No. CRL-2539) cells were cultured in RPMI supplemented with 10% fetal bovine serum (FBS), 1% penicillin/streptomycin (PS), and 2 mM L-glutamine, while HEK293T and MDA-MB-231 cells (ATCC Cat. No. HTB-26) were cultured in DMEM supplemented likewise as described above. […] The supernatant was collected, and protein concentration was measured using a Pierce BCA protein assay. […]
C. In-gel fluorescence imaging […]

Substance	Cell permeability by flow cytometry (Cy5 signal in NK-92 cells) ([1]; 1x10^6 NK-92 cells, fixed/permeabilized, mean ± SD n = 3)	Concentration dependence of protein labeling in NK-92 cells (flow cytometry) ([1]; NK-92 cells, n = 3)	S/N ratio (mean fluorescence intensity, intact NK-92 versus MDA-MB-231 cells) ([1]; probe 5 μM, flow cytometry, n = 3)	Labeling of GzmA in NK-92 lysate [2]
IGNR [compound 5]	clear Cy5 signal	concentration‐dependent protein labeling	≈ 4 and 4	selectively labeled GzmA in a concentration‐dependent manner at low nanomolar levels
[Tic]G[Oic]R [compound 6]				selectively labeled GzmA in a concentration‐dependent manner at low nanomolar levels
